Activity calls are given as the source filed them.
Experiments:
[1] = target: T1, Histone-lysine N-methyltransferase NSD2 (Homo sapiens, UniProt O96028); format: biochemical
T1 sequence (O96028 whole entry): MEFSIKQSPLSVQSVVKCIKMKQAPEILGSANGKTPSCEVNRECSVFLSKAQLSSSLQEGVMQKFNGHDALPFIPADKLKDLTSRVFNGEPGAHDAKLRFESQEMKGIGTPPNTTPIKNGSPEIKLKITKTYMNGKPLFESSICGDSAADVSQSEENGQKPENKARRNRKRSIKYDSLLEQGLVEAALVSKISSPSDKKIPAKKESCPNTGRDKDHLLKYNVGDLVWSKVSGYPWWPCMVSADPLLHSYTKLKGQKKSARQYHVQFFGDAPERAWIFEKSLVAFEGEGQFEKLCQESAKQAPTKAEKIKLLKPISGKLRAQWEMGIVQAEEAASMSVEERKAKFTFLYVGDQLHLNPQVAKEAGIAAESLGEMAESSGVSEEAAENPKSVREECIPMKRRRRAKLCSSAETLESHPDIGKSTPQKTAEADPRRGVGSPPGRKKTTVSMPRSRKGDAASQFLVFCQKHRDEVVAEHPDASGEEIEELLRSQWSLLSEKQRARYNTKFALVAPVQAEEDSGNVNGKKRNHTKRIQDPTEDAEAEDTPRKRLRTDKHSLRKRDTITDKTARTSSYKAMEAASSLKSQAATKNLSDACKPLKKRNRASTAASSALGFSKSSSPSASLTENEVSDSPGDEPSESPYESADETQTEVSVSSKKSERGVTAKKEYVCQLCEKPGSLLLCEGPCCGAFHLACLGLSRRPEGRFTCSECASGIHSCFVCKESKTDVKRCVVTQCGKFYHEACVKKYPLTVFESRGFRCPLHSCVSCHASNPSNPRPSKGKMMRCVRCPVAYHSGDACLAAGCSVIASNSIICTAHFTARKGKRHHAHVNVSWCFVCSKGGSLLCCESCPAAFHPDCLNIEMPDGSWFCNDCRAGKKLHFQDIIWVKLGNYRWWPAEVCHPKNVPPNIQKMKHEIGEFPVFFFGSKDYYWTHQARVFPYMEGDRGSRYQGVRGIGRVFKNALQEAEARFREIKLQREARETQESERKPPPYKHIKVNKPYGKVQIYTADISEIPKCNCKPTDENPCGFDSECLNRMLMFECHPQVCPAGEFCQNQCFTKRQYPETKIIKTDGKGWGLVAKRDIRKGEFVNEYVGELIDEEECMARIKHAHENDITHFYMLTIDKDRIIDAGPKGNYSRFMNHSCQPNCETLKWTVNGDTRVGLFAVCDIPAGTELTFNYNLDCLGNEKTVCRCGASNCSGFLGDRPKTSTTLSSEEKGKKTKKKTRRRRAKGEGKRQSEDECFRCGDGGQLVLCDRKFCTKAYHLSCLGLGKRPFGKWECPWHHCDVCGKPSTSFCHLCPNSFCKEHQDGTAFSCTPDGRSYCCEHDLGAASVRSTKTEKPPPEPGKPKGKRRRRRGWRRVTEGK

[2] = target: T2, Replicative DNA helicase DnaB (Mycobacterium tuberculosis, UniProt P9WMR3); test: DnaB intein splicing inhibitors, dose response, biochemical, cell-free fluorescence (AID 449749); format: functional
T2 sequence (P9WMR3 whole entry): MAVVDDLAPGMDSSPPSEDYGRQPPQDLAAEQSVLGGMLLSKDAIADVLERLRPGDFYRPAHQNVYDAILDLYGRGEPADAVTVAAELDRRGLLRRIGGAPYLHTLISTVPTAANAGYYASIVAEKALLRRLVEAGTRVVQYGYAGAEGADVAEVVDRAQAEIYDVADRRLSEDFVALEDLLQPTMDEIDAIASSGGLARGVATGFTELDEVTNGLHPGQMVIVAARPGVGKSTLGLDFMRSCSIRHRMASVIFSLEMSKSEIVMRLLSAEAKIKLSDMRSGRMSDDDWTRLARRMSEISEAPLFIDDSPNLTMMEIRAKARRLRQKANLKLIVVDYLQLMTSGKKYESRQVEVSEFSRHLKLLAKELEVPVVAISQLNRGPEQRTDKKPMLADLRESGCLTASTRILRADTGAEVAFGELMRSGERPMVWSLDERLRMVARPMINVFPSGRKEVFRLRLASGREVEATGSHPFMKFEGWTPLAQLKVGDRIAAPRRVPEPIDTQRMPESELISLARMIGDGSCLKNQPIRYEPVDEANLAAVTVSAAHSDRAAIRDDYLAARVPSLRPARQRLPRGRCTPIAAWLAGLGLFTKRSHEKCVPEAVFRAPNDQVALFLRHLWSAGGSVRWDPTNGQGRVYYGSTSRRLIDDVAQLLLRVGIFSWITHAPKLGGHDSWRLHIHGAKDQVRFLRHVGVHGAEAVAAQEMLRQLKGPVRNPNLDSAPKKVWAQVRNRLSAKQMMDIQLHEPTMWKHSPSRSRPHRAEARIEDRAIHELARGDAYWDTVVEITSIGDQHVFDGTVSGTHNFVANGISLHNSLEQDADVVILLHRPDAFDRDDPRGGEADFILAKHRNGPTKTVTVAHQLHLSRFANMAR

Protein RecA = target: T3, Protein RecA (Mycobacterium tuberculosis, UniProt P9WHJ3); test: Fluorescence Cell-Free Homogeneous Dose Retest to Identify Inhibitors of RecA-Intein Splicing Activity. [Related pubchem assays (depositor defined):AID2097, AID2223, AID489010, AID492950]; format: functional
T3 sequence (P9WHJ3 whole entry): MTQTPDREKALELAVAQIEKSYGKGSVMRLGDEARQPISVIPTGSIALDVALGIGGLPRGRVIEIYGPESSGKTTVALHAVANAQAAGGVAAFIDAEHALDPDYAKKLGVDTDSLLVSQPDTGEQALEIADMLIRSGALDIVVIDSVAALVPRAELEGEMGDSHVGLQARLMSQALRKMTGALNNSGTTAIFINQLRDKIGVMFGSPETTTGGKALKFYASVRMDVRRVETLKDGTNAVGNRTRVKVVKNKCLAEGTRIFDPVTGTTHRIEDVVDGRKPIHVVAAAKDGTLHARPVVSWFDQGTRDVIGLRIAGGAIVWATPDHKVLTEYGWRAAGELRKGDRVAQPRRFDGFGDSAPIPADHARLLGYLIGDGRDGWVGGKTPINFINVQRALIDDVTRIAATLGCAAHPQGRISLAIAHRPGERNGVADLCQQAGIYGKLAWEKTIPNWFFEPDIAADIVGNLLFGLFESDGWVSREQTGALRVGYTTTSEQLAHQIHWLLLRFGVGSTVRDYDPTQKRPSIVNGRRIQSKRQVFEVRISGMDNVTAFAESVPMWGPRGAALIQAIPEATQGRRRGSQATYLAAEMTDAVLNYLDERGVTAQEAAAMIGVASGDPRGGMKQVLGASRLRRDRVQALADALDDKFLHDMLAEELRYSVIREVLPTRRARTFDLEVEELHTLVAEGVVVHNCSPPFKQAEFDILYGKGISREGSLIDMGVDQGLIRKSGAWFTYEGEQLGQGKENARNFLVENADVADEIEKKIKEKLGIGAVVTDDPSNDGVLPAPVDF

Nonstructural protein 1 = Nonstructural protein 1 (Influenza A virus, UniProt Q194T2); format: functional, Influenza A virus (A/California/07/2009(H1N1))
[3] = target: T4, Ubiquitin-conjugating enzyme E2 N (Homo sapiens, UniProt P61088); format: functional;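 also: Dose-response confirmation in a TR-FRET assay detecting UBC13-driven polyubiquitin chain formation, inhibition measured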
T4 sequence (P61088 whole entry): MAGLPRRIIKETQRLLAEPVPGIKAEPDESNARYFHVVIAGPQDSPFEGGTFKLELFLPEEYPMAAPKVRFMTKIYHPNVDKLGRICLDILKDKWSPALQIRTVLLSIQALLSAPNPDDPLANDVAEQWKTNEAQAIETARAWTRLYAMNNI

INS1 = test: INS-1E survival protection against cytokine death – cell-based, luminescence, retest, dose response (AID 449756); format: functional; details: Rattus norvegicus;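 also: cell death triggered by IL-1 beta plus TNF-alpha plus IFN-gamma mixture; protective hits raise ATP signal compared with cytokine alone wells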
[4] = Luminescence Cell-Based Dose Retest to Confirm Inhibitors of Cancer Stem Cells. [Related pubchem assays (depositor defined):AID2717, AID2721]; format: functional, Homo sapiens; details: Homo sapiens
Fatty acid synthase [5] = target: T5, Fatty acid synthase (Homo sapiens, UniProt P49327); test: inhibition of human FAS-TE enzyme activity – biochemical, kinetic fluorescence intensity, dose response (AID 624326); format: functional;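 also: rate of fluorescence rise from hydrolysis of a fluorogenic O-methyl fluorescein ester substrate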
Fatty acid synthase [6] = target: T5, Fatty acid synthase; test: inhibition of human FAS-TE enzyme activity – biochemical, endpoint fluorescence intensity, uHTS hits, dose response (AID 624327); format: functional;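 also: fluorescence from hydrolysis of an O-methyl fluorescein acyl ester substrate by the enzyme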
Protein skinhead-1 = target: T6, Protein skinhead-1 (Caenorhabditis elegans, UniProt P34707); format: functional
T6 sequence (P34707 whole entry): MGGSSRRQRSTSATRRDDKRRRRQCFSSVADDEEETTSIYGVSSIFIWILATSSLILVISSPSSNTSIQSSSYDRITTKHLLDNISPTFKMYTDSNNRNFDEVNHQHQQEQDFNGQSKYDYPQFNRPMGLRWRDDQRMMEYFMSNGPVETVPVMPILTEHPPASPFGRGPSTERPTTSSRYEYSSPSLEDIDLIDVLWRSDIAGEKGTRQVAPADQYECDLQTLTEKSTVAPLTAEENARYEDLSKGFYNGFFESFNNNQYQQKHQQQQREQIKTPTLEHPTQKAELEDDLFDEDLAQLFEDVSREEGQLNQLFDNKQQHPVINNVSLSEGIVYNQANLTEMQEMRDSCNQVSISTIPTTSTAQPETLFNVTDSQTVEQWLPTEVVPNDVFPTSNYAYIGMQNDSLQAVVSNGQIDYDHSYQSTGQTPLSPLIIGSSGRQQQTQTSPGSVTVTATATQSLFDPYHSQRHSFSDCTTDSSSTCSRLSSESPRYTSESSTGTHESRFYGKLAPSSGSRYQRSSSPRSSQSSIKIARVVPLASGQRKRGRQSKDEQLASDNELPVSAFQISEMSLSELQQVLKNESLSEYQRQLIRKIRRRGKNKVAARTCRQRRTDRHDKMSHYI

[7] = target: T7, Calpain-2 catalytic subunit (Sus scrofa, UniProt P43367); test: m-calpain protease blockers, concentration series – biochemical, fluorogenic peptide substrate, dose response (AID 1420); format: functional
T7 sequence (P43367 whole entry): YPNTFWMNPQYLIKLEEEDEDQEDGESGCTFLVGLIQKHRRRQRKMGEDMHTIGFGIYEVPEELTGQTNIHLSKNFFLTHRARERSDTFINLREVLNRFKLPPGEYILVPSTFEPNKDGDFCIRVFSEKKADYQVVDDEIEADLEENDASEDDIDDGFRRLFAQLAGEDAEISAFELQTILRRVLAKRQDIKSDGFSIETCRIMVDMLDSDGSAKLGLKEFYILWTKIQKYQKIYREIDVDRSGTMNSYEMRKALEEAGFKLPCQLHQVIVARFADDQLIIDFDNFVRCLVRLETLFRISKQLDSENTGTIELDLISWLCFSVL

Vero = test: cells; format: functional; details: Chlorocebus sabaeus

Nonstructural protein 1, sequence (Q194T2 whole entry): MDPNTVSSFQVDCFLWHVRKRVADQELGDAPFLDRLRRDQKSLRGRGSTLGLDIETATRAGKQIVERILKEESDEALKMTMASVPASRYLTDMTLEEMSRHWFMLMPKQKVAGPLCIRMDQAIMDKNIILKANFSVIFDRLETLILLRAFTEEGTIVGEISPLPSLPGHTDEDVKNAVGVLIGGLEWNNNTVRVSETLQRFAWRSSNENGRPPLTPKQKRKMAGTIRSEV
T5 sequence (P49327 whole entry): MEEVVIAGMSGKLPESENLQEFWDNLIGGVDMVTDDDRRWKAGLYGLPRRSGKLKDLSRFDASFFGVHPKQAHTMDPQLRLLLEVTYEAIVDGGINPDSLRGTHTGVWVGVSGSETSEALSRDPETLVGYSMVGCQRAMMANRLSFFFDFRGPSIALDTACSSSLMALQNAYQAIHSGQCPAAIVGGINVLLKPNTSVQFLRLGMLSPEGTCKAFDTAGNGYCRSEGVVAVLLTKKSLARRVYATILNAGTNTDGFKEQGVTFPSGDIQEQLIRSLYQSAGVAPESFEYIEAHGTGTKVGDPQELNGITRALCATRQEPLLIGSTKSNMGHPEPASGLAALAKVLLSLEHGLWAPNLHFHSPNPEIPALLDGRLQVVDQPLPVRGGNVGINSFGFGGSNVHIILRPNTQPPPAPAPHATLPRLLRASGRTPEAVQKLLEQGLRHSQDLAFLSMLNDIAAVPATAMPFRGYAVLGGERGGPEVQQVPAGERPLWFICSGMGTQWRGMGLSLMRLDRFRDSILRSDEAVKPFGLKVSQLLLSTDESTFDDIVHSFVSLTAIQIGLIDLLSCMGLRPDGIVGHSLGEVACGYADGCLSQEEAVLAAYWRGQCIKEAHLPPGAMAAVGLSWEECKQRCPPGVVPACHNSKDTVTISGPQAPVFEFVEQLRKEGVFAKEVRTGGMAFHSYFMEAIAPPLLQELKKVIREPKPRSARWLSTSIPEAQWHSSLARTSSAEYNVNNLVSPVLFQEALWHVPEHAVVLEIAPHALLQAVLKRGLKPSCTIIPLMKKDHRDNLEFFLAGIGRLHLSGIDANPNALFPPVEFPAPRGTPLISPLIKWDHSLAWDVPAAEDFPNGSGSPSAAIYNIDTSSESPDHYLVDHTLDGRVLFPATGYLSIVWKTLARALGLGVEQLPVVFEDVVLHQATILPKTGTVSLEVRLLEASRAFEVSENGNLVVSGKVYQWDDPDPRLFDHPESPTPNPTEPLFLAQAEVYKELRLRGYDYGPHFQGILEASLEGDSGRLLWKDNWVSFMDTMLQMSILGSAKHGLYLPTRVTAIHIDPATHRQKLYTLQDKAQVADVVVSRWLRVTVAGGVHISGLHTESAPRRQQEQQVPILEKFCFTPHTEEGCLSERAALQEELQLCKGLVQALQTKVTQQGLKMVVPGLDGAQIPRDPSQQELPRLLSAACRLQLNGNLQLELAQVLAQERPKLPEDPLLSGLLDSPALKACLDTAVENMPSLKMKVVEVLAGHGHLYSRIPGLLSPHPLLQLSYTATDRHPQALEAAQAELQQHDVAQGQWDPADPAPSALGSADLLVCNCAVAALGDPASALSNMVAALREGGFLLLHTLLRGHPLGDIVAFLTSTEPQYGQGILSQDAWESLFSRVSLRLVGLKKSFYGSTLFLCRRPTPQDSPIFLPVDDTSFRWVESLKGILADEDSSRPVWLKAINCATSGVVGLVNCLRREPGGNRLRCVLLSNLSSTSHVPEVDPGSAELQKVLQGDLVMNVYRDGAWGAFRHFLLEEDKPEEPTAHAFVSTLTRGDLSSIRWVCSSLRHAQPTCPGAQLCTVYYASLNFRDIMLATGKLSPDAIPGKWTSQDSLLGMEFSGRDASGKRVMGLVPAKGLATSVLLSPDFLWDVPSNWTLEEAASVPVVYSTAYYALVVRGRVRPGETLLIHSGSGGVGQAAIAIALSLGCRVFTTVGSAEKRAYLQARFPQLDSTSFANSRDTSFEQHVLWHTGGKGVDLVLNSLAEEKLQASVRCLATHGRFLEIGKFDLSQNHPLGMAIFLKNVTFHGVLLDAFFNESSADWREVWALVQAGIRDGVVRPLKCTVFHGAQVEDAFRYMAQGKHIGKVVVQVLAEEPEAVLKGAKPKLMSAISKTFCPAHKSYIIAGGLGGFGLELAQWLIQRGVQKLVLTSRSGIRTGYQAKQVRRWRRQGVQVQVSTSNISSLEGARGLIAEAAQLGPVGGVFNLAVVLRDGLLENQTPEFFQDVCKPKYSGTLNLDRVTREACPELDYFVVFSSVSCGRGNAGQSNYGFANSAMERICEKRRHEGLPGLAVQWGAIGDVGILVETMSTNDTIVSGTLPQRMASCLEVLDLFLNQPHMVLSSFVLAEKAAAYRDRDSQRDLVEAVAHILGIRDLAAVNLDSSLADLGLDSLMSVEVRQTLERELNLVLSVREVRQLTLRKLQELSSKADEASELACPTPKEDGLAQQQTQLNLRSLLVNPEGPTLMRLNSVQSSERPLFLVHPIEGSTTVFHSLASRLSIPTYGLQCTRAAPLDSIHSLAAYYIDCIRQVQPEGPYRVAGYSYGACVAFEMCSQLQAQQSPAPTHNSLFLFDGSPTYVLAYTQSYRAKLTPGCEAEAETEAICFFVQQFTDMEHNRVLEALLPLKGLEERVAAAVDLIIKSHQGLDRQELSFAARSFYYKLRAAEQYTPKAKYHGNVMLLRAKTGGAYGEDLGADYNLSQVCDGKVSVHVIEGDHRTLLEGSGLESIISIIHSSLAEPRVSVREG

## COc1cc(NC(C)CCCN)c2ncccc2c1Oc1ccccc1 (stereo not given)
[1]
  AC50: 466 nM (active)
[2]
  AC50: > 380 µM (inactive)
Protein RecA
  EC50: 7.94 µM (active)

## Cc1ccc(N=Nc2ccc3ccccc3c2O)cc1
Nonstructural protein 1
  IC50: 5.83 µM (active)

## COc1cc2sc(-c3ccccc3OC)c(-c3ccc(OCCN4CCCCC4)cc3)c2cc1OC
[3]
  IC50: > 20 µM (inactive)
INS1
  AC50: 7.69 µM (active)
[4]
  AC50: 6.45 µM (active)

## CC(=O)NNc1nc(-c2ccccc2)cs1
Fatty acid synthase [5]
  IC50: 18.2 µM (active)
Fatty acid synthase [6]
  IC50: 18.6 µM (active)

## Cc1cc(Br)cn2c(Cc3ccsc3)c(-c3ccccc3)nc12
Protein skinhead-1
  IC50: > 100 µM (inactive)

## Cc1cc2cc(CN=C(S)NCc3ccccc3)ccc2n1C
Protein skinhead-1
  IC50: > 100 µM (inactive)

## CCN1CCN(Cc2ccc(NC(=O)c3cc(NC(=O)c4cnn(-c5ccccc5)c4N)cc(OC)c3)cc2C(F)(F)F)CC1
[3]
  IC50: > 20 µM (inactive)
INS1
  AC50: 19.6 µM (active)
[4]
  AC50: 11.7 µM (active)

## CCCOc1ccc(NC(=O)CC2C(=O)N(C)C(=S)N2Cc2cccs2)cc1 (stereo not given)
Fatty acid synthase [5]
  IC50: 7.42 µM (active)
Fatty acid synthase [6]
  IC50: 9.62 µM (active)

## CC(C)Oc1ccccc1/C=N/Nc1ccccc1[N+](=O)[O-]
Nonstructural protein 1
  IC50: 31.2 µM (active)

## COCCOc1ccc(C(F)(F)F)cc1NC(=O)COC(=O)c1cc([N+](=O)[O-])ccc1N1CCOCC1
Fatty acid synthase [5]
  IC50: 6.42 µM (active)
Fatty acid synthase [6]
  IC50: 5.58 µM (active)

## Cc1ccc(C(C(=O)NCC2CCCO2)N(C(=O)c2snc(C(N)=O)c2N)c2ccc(F)cc2)o1 (stereo not given)
[3]
  IC50: > 20 µM (inactive)

## COc1ccc(OC)c(NC2c3ccccc3C(=O)N2Cc2ccc3c(c2)OCO3)c1 (stereo not given)
Nonstructural protein 1
  IC50: 57.5 µM (active)

## c1ccc(CSc2ncnc3sccc23)cc1
Protein skinhead-1
  IC50: 92.7 µM (inactive)

## CCOc1ccc(NS(=O)(=O)c2ccc(NC(=S)NC(=O)CC(C)C)cc2)cc1
[7]
  IC50: 6.89 µM (not active)

## O=C(N=Nc1c(O)[nH]c2ccc(Cl)cc12)c1cc(-c2cccs2)nc2ccccc12
[7]
  IC50: 10.3 µM (not active)

## c1ccc(SCc2cc(-c3ccccc3)no2)cc1
Protein skinhead-1
  IC50: 17.6 µM (active)

## O=C(Nc1cccc(Cl)c1)c1cc(-c2ccco2)on1
Protein skinhead-1
  IC50: > 100 µM (inactive)

## CCOc1ccc(OCC)c(S(=O)(=O)NCCOC23CC4CC(CC(C4)C2)C3)c1
INS1
  AC50: 8.76 µM (active)
[7]
  IC50: 8.71 µM (not active)

## Cc1cc(C)c(NC(=S)NC(=O)c2ccc(-c3ccccc3)cc2)c(C)c1
[7]
  IC50: 12.4 µM (not active)

## O=C(COC(=O)c1cc([N+](=O)[O-])ccc1NCc1ccccc1)NC1CCCCC1
Fatty acid synthase [5]
  IC50: 1.64 µM (active)
Fatty acid synthase [6]
  IC50: 1.31 µM (active)
Vero
  CC50: > 25 µM (active)

## O=C(O)c1ccc(CSc2nc[nH]n2)cc1
[7]
  IC50: < 0.4 µM (not active)

## Cc1cc2cc(CNC(=O)C3CC3)ccc2n1C
Protein skinhead-1
  IC50: > 100 µM (inactive)

## CC(=O)c1ccc(Sc2ccc(C(C)=O)cc2)cc1
[3]
  IC50: > 20 µM (inactive)

From ChEMBL document CHEMBL1201862, “PubChem BioAssay data set” (2004)
